Key:
[1] = system: B. subtilis; test: Synergy/antagonism two-drug combination assay, B. subtilis; assay type: cell-based
[2] = system: S. aureus; test: Synergy/antagonism two-drug combination assay, S. aureus; assay type: cell-based
[3] = system: K. pneumoniae; test: Synergy/antagonism two-drug combination assay, K. pneumoniae; assay type: cell-based
[4] = system: E. coli; test: Synergy/antagonism two-drug combination assay, E. coli; assay type: cell-based
[5] = system: A. baumannii; test: Synergy/antagonism two-drug combination assay, A. baumannii; assay type: cell-based
[6] = system: P. aeruginosa; test: Synergy/antagonism two-drug combination assay, P. aeruginosa; assay type: cell-based
[7] = molecular target: EcUPPP (Escherichia coli, UniProt P60932); test: EcUPPP inhibition, malachite-green assay; assay type: biochemical, E. coli; conditions: read-out: IC50 EuUPPP
EcUPPP, sequence (P60932 whole entry): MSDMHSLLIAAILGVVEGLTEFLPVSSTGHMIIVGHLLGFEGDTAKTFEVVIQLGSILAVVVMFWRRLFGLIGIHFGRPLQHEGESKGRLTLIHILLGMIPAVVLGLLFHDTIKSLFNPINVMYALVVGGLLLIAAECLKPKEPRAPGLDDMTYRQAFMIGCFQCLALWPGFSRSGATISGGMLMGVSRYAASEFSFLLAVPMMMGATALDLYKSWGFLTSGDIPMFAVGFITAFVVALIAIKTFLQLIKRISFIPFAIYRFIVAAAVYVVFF

Compound: CC1(C)S[C@@H]2[C@H](NC(=O)[C@H](N)c3ccccc3)C(=O)N2[C@H]1C(=O)O [Ampicillin]
- FIC ([1]; B. subtilis, combination of 32 with Ampicillin): 0.18 ± 0.041
- MIC ([1]; Bacillus subtilis): 0.5 µg/mL
- FIC ([2]; S. aureus, combination of 32 with Ampicillin): 0.30 ± 0.095
- MIC ([2]; Staphylococcus aureus): 0.5 µg/mL

Compound: CC1(C)S[C@@H]2[C@H](NC(=O)C(C(=O)O)c3ccccc3)C(=O)N2[C@H]1C(=O)O (stereo partly drawn) [Carbenicillin]
- FIC ([1]; B. subtilis, combination of 32 with Carbenicillin): 0.25 ± 0.043
- MIC ([1]; Bacillus subtilis): 5 µg/mL
- FIC ([2]; S. aureus, combination of 32 with Carbenicillin): 0.27 ± 0.015
- MIC ([2]; Staphylococcus aureus): 15 µg/mL

Compound: CO/N=C(\C(=O)N[C@@H]1C(=O)N2C(C(=O)O)=C(COC(C)=O)CS[C@H]12)c1csc(N)n1 [Cefotaxime]
- FIC ([1]; B. subtilis, combination of 32 with Cefotaxime): 0.30 ± 0.044
- MIC ([1]; Bacillus subtilis): 2.5 µg/mL
- FIC ([2]; S. aureus, combination of 32 with Cefotaxime): 0.21 ± 0.048
- MIC ([2]; Staphylococcus aureus): 2 µg/mL

Compound: O=C(N[C@H](CO)[C@H](O)c1ccc([N+](=O)[O-])cc1)C(Cl)Cl [Chloramphenicol]
- FIC ([1]; B. subtilis, combination of 32 with Chloramphenicol): 0.55 ± 0.13
- MIC ([1]; Bacillus subtilis): 0.5 µg/mL
- FIC ([2]; S. aureus, combination of 32 with Chloramphenicol): 0.71 ± 0.11
- MIC ([2]; Staphylococcus aureus): 5 µg/mL

Compound: C[C@@H]1O[C@@H]1P(=O)(O)O [Fosfomycin]
- FIC ([1]; B. subtilis, combination of 32 with Fosfomycin): 0.21 ± 0.025
- MIC ([1]; Bacillus subtilis): 200 µg/mL
- FIC ([2]; S. aureus, combination of 32 with Fosfomycin): 0.13 ± 0.022
- MIC ([2]; Staphylococcus aureus): 200 µg/mL

Compound: NC[C@H]1O[C@H](O[C@H]2[C@H](O)[C@@H](O[C@H]3O[C@H](CO)[C@@H](O)[C@H](N)[C@H]3O)[C@H](N)C[C@@H]2N)[C@H](O)[C@@H](O)[C@@H]1O [Kanamycin]
- FIC ([1]; B. subtilis, combination of 32 with Kanamycin): 0.61 ± 0.097
- MIC ([1]; B. subtilis, drug acting alone): 1.5 µg/mL
- FIC ([2]; S. aureus, combination of 32 with Kanamycin): 0.81 ± 0.17
- MIC ([2]; S. aureus, drug acting alone): 1.5 µg/mL

Compound: CN[C@@H]1[C@H](O)[C@H](NC)[C@H]2O[C@@]3(O)C(=O)C[C@@H](C)O[C@H]3O[C@@H]2[C@H]1O [Spectinomycin]
- FIC ([2]; S. aureus, combination of 32 with Spectinomycin): 0.45 ± 0.091
- MIC ([2]; Staphylococcus aureus): 40 µg/mL

Compound: Cc1cc(NS(=O)(=O)c2ccc(N)cc2)no1 [Sulfamethoxazole]
- FIC ([1]; B. subtilis, combination of 32 with Sulfamethoxazole): 0.87 ± 0.23
- MIC ([1]; Bacillus subtilis): 200 µg/mL
- FIC ([2]; S. aureus, combination of 32 with Sulfamethoxazole): 0.75 ± 0.20
- MIC ([2]; Staphylococcus aureus): 200 µg/mL

Compound: CN(C)[C@@H]1C(O)=C(C(N)=O)C(=O)[C@@]2(O)C(O)=C3C(=O)c4c(O)cccc4[C@@](C)(O)[C@H]3C[C@@H]12 [Tetracycline]
- FIC ([1]; B. subtilis, combination of 32 with Tetracycline): 0.82 ± 0.21
- MIC ([1]; Bacillus subtilis): 5 µg/mL
- FIC ([2]; S. aureus, combination of 32 with Tetracycline): 0.83 ± 0.38
- MIC ([2]; Staphylococcus aureus): 0.5 µg/mL

Compound: COc1cc(Cc2cnc(N)nc2N)cc(OC)c1OC [Trimethoprim]
- FIC ([1]; B. subtilis, combination of 32 with Trimethoprim): 0.77 ± 0.18
- MIC ([1]; Bacillus subtilis): 0.5 µg/mL
- FIC ([2]; S. aureus, combination of 32 with Trimethoprim): 0.69 ± 0.32
- MIC ([2]; Staphylococcus aureus): 15 µg/mL

Compound: CN[C@H](CC(C)C)C(=O)N[C@H]1C(=O)N[C@@H](CC(N)=O)C(=O)N[C@H]2C(=O)N[C@H]3C(=O)N[C@H](C(=O)N[C@H](C(=O)O)c4cc(O)cc(O)c4-c4cc3ccc4O)[C@H](O)c3ccc(c(Cl)c3)Oc3cc2cc(c3O[C@@H]2O[C@H](CO)[C@@H](O)[C@H](O)[C@H]2O[C@H]2C[C@](C)(N)[C@H](O)[C@H](C)O2)Oc2ccc(cc2Cl)[C@H]1O [Vancomycin]
- FIC ([1]; B. subtilis, combination of 32 with Vancomycin): 0.33 ± 0.058
- MIC ([1]; Bacillus subtilis): 0.5 µg/mL
- FIC ([2]; S. aureus, combination of 32 with Vancomycin): 0.19 ± 0.019
- MIC ([2]; Staphylococcus aureus): 1.5 µg/mL

Compound: O=CN(O)CCCP(=O)(O)O [fosmidomycin]
- FIC ([3]; K. pneumoniae, combination of 11 with fosmidomycin): 0.12 ± 0.014
- MIC ([3]; Klebsiella pneumoniae): 5 µg/mL
- FIC ([1]; B. subtilis, combination of 32 with Fosmidomycin): 0.25 ± 0.043
- MIC ([1]; Bacillus subtilis): 5 µg/mL
- FIC ([4]; E. coli, combination of 11 with fosmidomycin): 0.14 ± 0.13
- MIC ([4]; Escherichia coli): 5 µg/mL
- FIC ([5]; A. baumannii, combination of 11 with fosmidomycin): 0.27 ± 0.057
- MIC ([5]; Acinetobacter baumannii): 5 µg/mL
- FIC ([6]; P. aeruginosa, combination of 11 with fosmidomycin): 0.18 ± 0.066
- MIC ([6]; Pseudomonas aeruginosa): 3 µg/mL

Compound: Bacitracin
- FIC ([1]; B. subtilis, combination of 32 with Bacitracin): 0.12 ± 0.028
- MIC ([1]; B. subtilis, drug acting alone): 200 µg/mL
- FIC ([2]; S. aureus, combination of 32 with Bacitracin): 0.21 ± 0.039
- MIC ([2]; S. aureus, drug acting alone): 200 µg/mL
- IC50 [7]: 32 µM

Source: publication PMC5160999 (ChemMedChem, 2016)
